From ChEMBL document CHEMBL1201862, “PubChem BioAssay data set” (2004)
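Grown in 96-well plates, cells were treated for 48 hours with each compound at five concentrations. Insufficient inhibition: endpoint recorded as highest concentration tested. GI50: concentration for 50% inhibition of growth.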 Calls of active or inactive are those of the source. No stated cut-off is given here; in the data, active = GI50 up to about 1.1 µM and inactive = higher.

Tests used:
Assay in all cases: NCI-60 cell line screen, 48 h
[1] = test system: HCC 2998
[2] = test system: HCT-15
[3] = test system: HL-60
[4] = test system: HOP-62
[5] = test system: MCF7
[6] = test system: MDA-MB-435
[7] = test system: MDA-N
[8] = test system: NCI-H23
[9] = test system: OVCAR-3
[10] = test system: OVCAR-4
[11] = test system: SF-295
[12] = test system: SK-OV-3
[13] = test system: SR
[14] = test system: TK-10
[15] = test system: UACC-257
[16] = test system: K562
[17] = test system: RPMI-8226
[18] = test system: U-251
[19] = test system: BT-549

Structure (SMILES)	GI50 [1]	GI50 [2] [µM]	GI50 [3]	GI50 [4]	GI50 [5]	GI50 [6]	GI50 [7]	GI50 [8]	GI50 [9]	GI50 [10]	GI50 [11]	GI50 [12]	GI50 [13]	GI50 [14]	GI50 [15]	GI50 [16]	GI50 [17]	GI50 [18]	GI50 [19]
N#Cc1c(-c2ccco2)c2c(n(C3OC(CO)C(O)C(O)C3O)c1=S)CCCC2 (stereo not given)	> 100 µM (inactive)	> 100	> 100 µM (inactive)	> 100 µM (inactive)	> 100 µM (inactive)	> 100 µM (inactive)	> 100 µM (inactive)	> 100 µM (inactive)	> 100 µM (inactive)	> 100 µM (inactive)	> 100 µM (inactive)	> 100 µM (inactive)	> 100 µM (inactive)	> 100 µM (inactive)	> 100 µM (inactive)				
CCOC(=O)/C(=C\c1c(C)[nH]c2ccccc12)P(=O)(OCC)OCC	> 100 µM (inactive)	> 100		> 100 µM (inactive)	> 100 µM (inactive)	> 100 µM (inactive)	> 100 µM (inactive)	> 100 µM (inactive)	> 100 µM (inactive)	> 100 µM (inactive)	> 100 µM (inactive)	> 100 µM (inactive)	> 100 µM (inactive)	> 100 µM (inactive)	> 100 µM (inactive)	> 100 µM (inactive)	> 100 µM (inactive)	> 100 µM (inactive)	
COC(=O)c1ccccc1C1=C([N+](=O)[O-])C(c2ccccc2)C(C#N)=C(N)O1 (stereo not given)	> 100 µM (inactive)	19.8	42.8 µM (inactive)	> 100 µM (inactive)		72.8 µM (inactive)	> 100 µM (inactive)	23.4 µM (inactive)	24.7 µM (inactive)		> 100 µM (inactive)	> 100 µM (inactive)	36.3 µM (inactive)	> 100 µM (inactive)	> 100 µM (inactive)	33.7 µM (inactive)	34.5 µM (inactive)	> 100 µM (inactive)	
O=C(C[n+]1ccccc1)N/N=C(\Cc1nc2ccc([N+](=O)[O-])cc2nc1O)C(=O)Nc1cc(Cl)c(Cl)cc1Cl	59 µM (inactive)	> 100	> 100 µM (inactive)		67.3 µM (inactive)	> 100 µM (inactive)		> 100 µM (inactive)	76 µM (inactive)	79.4 µM (inactive)	> 100 µM (inactive)	> 100 µM (inactive)	> 100 µM (inactive)		> 100 µM (inactive)	> 100 µM (inactive)	> 100 µM (inactive)	> 100 µM (inactive)	> 100 µM (inactive)
N#Cc1ccc2[nH]c3c(c2c1)CC(=O)Nc1ccccc1-3 [PAULLONE 2]	> 100 µM (inactive)	> 100	> 100 µM (inactive)	> 100 µM (inactive)	> 100 µM (inactive)	> 100 µM (inactive)		> 100 µM (inactive)	> 100 µM (inactive)	> 100 µM (inactive)	> 100 µM (inactive)		2.9 µM (inactive)	> 100 µM (inactive)	> 100 µM (inactive)	> 100 µM (inactive)	> 100 µM (inactive)	> 100 µM (inactive)	> 100 µM (inactive)
CCOC(=O)c1ccc(/N=C/C=C(\Nc2ccc(C(=O)OCC)cc2)c2ccc3ccccc3c2)cc1		20.7	25.4 µM (inactive)	30.8 µM (inactive)	23.4 µM (inactive)	16.2 µM (inactive)		21 µM (inactive)	23.1 µM (inactive)	26.4 µM (inactive)	28.2 µM (inactive)	30.2 µM (inactive)	20.3 µM (inactive)	19.8 µM (inactive)	31 µM (inactive)	13.3 µM (inactive)	18.7 µM (inactive)	32.8 µM (inactive)	17 µM (inactive)
CN(C)c1ccc(/C=N\NC(=O)CSCC(=O)N/N=C/c2ccc(N(C)C)cc2)cc1		16.4	70.5 µM (inactive)	62.8 µM (inactive)	40.5 µM (inactive)	76.6 µM (inactive)		49.9 µM (inactive)	68.9 µM (inactive)	43.9 µM (inactive)	31.1 µM (inactive)	> 100 µM (inactive)	73.8 µM (inactive)	> 100 µM (inactive)	> 100 µM (inactive)	52.6 µM (inactive)	33.3 µM (inactive)	25.9 µM (inactive)	23.8 µM (inactive)
Cc1c(CN)c(C)c(CN)c(C)c1CN	> 100 µM (inactive)	> 100	> 100 µM (inactive)	81.5 µM (inactive)	> 100 µM (inactive)	> 100 µM (inactive)		27 µM (inactive)		> 100 µM (inactive)	> 100 µM (inactive)		> 100 µM (inactive)	> 100 µM (inactive)	> 100 µM (inactive)	> 100 µM (inactive)	> 100 µM (inactive)	> 100 µM (inactive)	> 100 µM (inactive)
NCCN1CC2CCC(CC2)C1	> 10 µM (inactive)	> 10	> 10 µM (inactive)	> 10 µM (inactive)	> 10 µM (inactive)	> 10 µM (inactive)		> 10 µM (inactive)	> 10 µM (inactive)	> 10 µM (inactive)	> 10 µM (inactive)	> 10 µM (inactive)	> 10 µM (inactive)	> 10 µM (inactive)	> 10 µM (inactive)	> 10 µM (inactive)	> 10 µM (inactive)	> 10 µM (inactive)	
FC(F)(F)c1cccc(-c2nc3ccccc3c3c2[C@@]2(N4CCCC4)CCCC[C@@H]32)c1			25.8 µM (inactive)	32.3 µM (inactive)	20 µM (inactive)	23.6 µM (inactive)	32.2 µM (inactive)	32.4 µM (inactive)	38.9 µM (inactive)	35.3 µM (inactive)	26.2 µM (inactive)	36.9 µM (inactive)	40.9 µM (inactive)	30.3 µM (inactive)	44.9 µM (inactive)	30.8 µM (inactive)	17.5 µM (inactive)	23.1 µM (inactive)	
CNC(=O)OC(C)CN1c2ccccc2Sc2ccccc21 (stereo not given)	> 100 µM (inactive)	32.1	7.69 µM (inactive)	> 100 µM (inactive)	> 100 µM (inactive)	80.2 µM (inactive)		> 100 µM (inactive)	> 100 µM (inactive)	74.5 µM (inactive)	45.1 µM (inactive)	> 100 µM (inactive)	86.3 µM (inactive)	> 100 µM (inactive)	> 100 µM (inactive)	63.7 µM (inactive)		> 100 µM (inactive)	> 100 µM (inactive)
O=C(NCCN1CCOCC1)c1ccc(I)cc1	> 100 µM (inactive)	> 100	> 100 µM (inactive)		> 100 µM (inactive)			> 100 µM (inactive)	> 100 µM (inactive)	> 100 µM (inactive)		> 100 µM (inactive)	> 100 µM (inactive)	> 100 µM (inactive)		> 100 µM (inactive)	> 100 µM (inactive)	> 100 µM (inactive)	> 100 µM (inactive)
